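A five-concentration, 48-hour dose response in 96-well plates underlies each endpoint, interpolated linearly between surrounding concentrations. At the GI50, growth is halved.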 Activity calls are given as the source filed them. Rule as the data show it: active = GI50 up to about 1.1 µM and inactive = higher.
Key:
Assay in all cases: growth of human tumour cells (NCI), 48 h
IGROV-1 = system: IGROV-1
UACC-62 = system: UACC-62
M14 = system: M14
OVCAR-4 = system: OVCAR-4
EKVX = system: EKVX
A498 = system: A498
CAKI-1 = system: CAKI-1
RXF 393 = system: RXF 393
RPMI-8226 = system: RPMI-8226
MDA-MB-435 = system: MDA-MB-435
SK-OV-3 = system: SK-OV-3
Hs-578T = system: Hs-578T
SNB-19 = system: SNB-19
SK-MEL-2 = system: SK-MEL-2
SF-539 = system: SF-539
HL-60 = system: HL-60
SF-295 = system: SF-295
HCT-116 = system: HCT-116
ACHN = system: ACHN
MDA-N = system: MDA-N
HOP-92 = system: HOP-92
PC-3 = system: PC-3
SN12C = system: SN12C
HOP-62 = system: HOP-62
HCT-15 = system: HCT-15
K562 = system: K562
786-0 = system: 786-0
T47D = system: T47D
TK-10 = system: TK-10
HT-29 = system: HT-29
LOX IMVI = system: LOX IMVI
OVCAR-3 = system: OVCAR-3
U-251 = system: U-251
OVCAR-8 = system: OVCAR-8
UACC-257 = system: UACC-257
OVCAR-5 = system: OVCAR-5
DU-145 = system: DU-145
SF-268 = system: SF-268
SW-620 = system: SW-620
MCF7 = system: MCF7
UO-31 = system: UO-31
MOLT-4 = system: MOLT-4
A549 = system: A549
NCI/ADR-RES = system: NCI/ADR-RES
KM12 = system: KM12
NCI-H226 = system: NCI-H226
MDA-MB-231 = system: MDA-MB-231
SK-MEL-5 = system: SK-MEL-5
NCI-H23 = system: NCI-H23
Malme-3M = system: Malme-3M
CCRF-CEM = system: CCRF-CEM
NCI-H460 = system: NCI-H460
NCI-H522 = system: NCI-H522
COLO 205 = system: COLO 205
BT-549 = system: BT-549
SK-MEL-28 = system: SK-MEL-28
SR = system: SR
HCC 2998 = system: HCC 2998

OC1CN2Cc3cc4c(cc3[C@]13C=C[C@@H](O)CC23)OCO4 (stereo partly drawn)
GI50 (IGROV-1): 18.3 µM (inactive)
GI50 (UACC-62): 33 µM (inactive)
GI50 (M14): 20.5 µM (inactive)
GI50 (OVCAR-4): 19.8 µM (inactive)
GI50 (EKVX): 15.4 µM (inactive)
GI50 (A498): 34.4 µM (inactive)
GI50 (CAKI-1): 11.9 µM (inactive)
GI50 (RXF 393): 15.7 µM (inactive)
GI50 (RPMI-8226): 32.6 µM (inactive)
GI50 (MDA-MB-435): 20 µM (inactive)
GI50 (SK-OV-3): 20.2 µM (inactive)
GI50 (Hs-578T): 57.5 µM (inactive)
GI50 (SNB-19): 22.2 µM (inactive)
GI50 (SK-MEL-2): 31.6 µM (inactive)
GI50 (SF-539): 45.6 µM (inactive)
GI50 (HL-60): 21.2 µM (inactive)
GI50 (SF-295): 33.6 µM (inactive)
GI50 (HCT-116): 14.2 µM (inactive)
GI50 (ACHN): 7.85 µM (inactive)
GI50 (MDA-N): 17 µM (inactive)
GI50 (HOP-92): 21.3 µM (inactive)
GI50 (PC-3): 27.6 µM (inactive)
GI50 (SN12C): 25.1 µM (inactive)
GI50 (HOP-62): 41.1 µM (inactive)
GI50 (HCT-15): 30.3 µM
GI50 (K562): 23.7 µM (inactive)
GI50 (786-0): 20.9 µM (inactive)
GI50 (T47D): 4.82 µM (inactive)
GI50 (TK-10): 23.2 µM (inactive)
GI50 (HT-29): 10.9 µM (inactive)
GI50 (LOX IMVI): 30 µM (inactive)
GI50 (OVCAR-3): 37.2 µM (inactive)
GI50 (U-251): 30.8 µM (inactive)
GI50 (OVCAR-8): 29.2 µM (inactive)
GI50 (UACC-257): 7.89 µM (inactive)
GI50 (OVCAR-5): 23.9 µM (inactive)
GI50 (DU-145): 8.69 µM (inactive)
GI50 (SF-268): 29.3 µM (inactive)
GI50 (SW-620): 28 µM (inactive)
GI50 (MCF7): 16.4 µM (inactive)
GI50 (UO-31): 33.6 µM (inactive)
GI50 (MOLT-4): 16.6 µM (inactive)
GI50 (A549): 19.5 µM (inactive)
GI50 (NCI/ADR-RES): 54.3 µM (inactive)
GI50 (KM12): 18.1 µM (inactive)
GI50 (NCI-H226): > 100 µM (inactive)
GI50 (MDA-MB-231): 59.3 µM (inactive)
GI50 (SK-MEL-5): 22.9 µM (inactive)
GI50 (NCI-H23): 36.1 µM (inactive)
GI50 (Malme-3M): 35.8 µM (inactive)
GI50 (CCRF-CEM): 8.57 µM (inactive)
GI50 (NCI-H460): 14.4 µM (inactive)
GI50 (NCI-H522): 27.3 µM (inactive)
GI50 (COLO 205): 22.3 µM (inactive)
GI50 (BT-549): 33.4 µM (inactive)
GI50 (SK-MEL-28): 48.4 µM (inactive)
GI50 (SR): 12.4 µM (inactive)

C=C1C(=O)O[C@H]2C[C@@H]1C(=O)CC(C)CCCC(C)=CCC[C@@]2(C)O (stereo partly drawn)
GI50 (IGROV-1): > 25 µM (inactive)
GI50 (UACC-62): > 25 µM (inactive)
GI50 (M14): > 25 µM (inactive)
GI50 (OVCAR-4): > 25 µM (inactive)
GI50 (EKVX): > 25 µM (inactive)
GI50 (A498): > 25 µM (inactive)
GI50 (RXF 393): > 25 µM (inactive)
GI50 (RPMI-8226): > 25 µM (inactive)
GI50 (MDA-MB-435): > 25 µM (inactive)
GI50 (SK-OV-3): > 25 µM (inactive)
GI50 (Hs-578T): > 25 µM (inactive)
GI50 (SNB-19): > 25 µM (inactive)
GI50 (SK-MEL-2): > 25 µM (inactive)
GI50 (SF-539): > 25 µM (inactive)
GI50 (HL-60): > 25 µM (inactive)
GI50 (SF-295): > 25 µM (inactive)
GI50 (HCT-116): > 25 µM (inactive)
GI50 (ACHN): > 25 µM (inactive)
GI50 (MDA-N): > 25 µM (inactive)
GI50 (HOP-92): > 25 µM (inactive)
GI50 (PC-3): > 25 µM (inactive)
GI50 (SN12C): > 25 µM (inactive)
GI50 (HOP-62): > 25 µM (inactive)
GI50 (HCT-15): > 25 µM
GI50 (786-0): > 25 µM (inactive)
GI50 (T47D): > 25 µM (inactive)
GI50 (TK-10): > 25 µM (inactive)
GI50 (HT-29): > 25 µM (inactive)
GI50 (LOX IMVI): > 25 µM (inactive)
GI50 (OVCAR-3): > 25 µM (inactive)
GI50 (U-251): > 25 µM (inactive)
GI50 (OVCAR-8): > 25 µM (inactive)
GI50 (UACC-257): > 25 µM (inactive)
GI50 (OVCAR-5): > 25 µM (inactive)
GI50 (DU-145): > 25 µM (inactive)
GI50 (SF-268): > 25 µM (inactive)
GI50 (SW-620): > 25 µM (inactive)
GI50 (MCF7): > 25 µM (inactive)
GI50 (UO-31): > 25 µM (inactive)
GI50 (MOLT-4): > 25 µM (inactive)
GI50 (A549): > 25 µM (inactive)
GI50 (NCI/ADR-RES): > 25 µM (inactive)
GI50 (KM12): > 25 µM (inactive)
GI50 (NCI-H226): > 25 µM (inactive)
GI50 (MDA-MB-231): > 25 µM (inactive)
GI50 (HCC 2998): > 25 µM (inactive)
GI50 (SK-MEL-5): > 25 µM (inactive)
GI50 (NCI-H23): > 25 µM (inactive)
GI50 (Malme-3M): > 25 µM (inactive)
GI50 (CCRF-CEM): > 25 µM (inactive)
GI50 (NCI-H460): > 25 µM (inactive)
GI50 (NCI-H522): > 25 µM (inactive)
GI50 (COLO 205): > 25 µM (inactive)
GI50 (BT-549): > 25 µM (inactive)
GI50 (SK-MEL-28): > 25 µM (inactive)
GI50 (SR): 16.8 µM (inactive)
